Assay results: US20140057842A1, “COMPOSITIONS AND METHODS FOR CELL HOMING AND ADIPOGENESIS” (The Trustees of Columbia University in the City of New York, priority 2010, published 2014)

Columns and labels:
[1] = tested on: adipocyte stem cells (ASCs); experiment: Adipogenesis of adipocyte stem cells treated with EGFR antagonist (marker expression, glycerol and leptin contents); type: cell-based; conditions: 50 ng/mL in adipogenic medium
From the text: Together, the adipogenic differentiation capacity of ASCs was restored to a similar level to without HSC co-culture.

[2] = tested on: hADSCs; experiment: PPARγ expression of hADSCs followed for 28 days; type: cell-based, human; conditions: ADM plus 2 μM Pyrintegrin, compared with ADM alone
Experimental: (§1) Change in PPARγ expression of hADSCs were followed for 28 days. hADSCs were treated with: control medium; adipogenic differentiation medium (ADM); ADM plus 10 μM of Notch gamma Secretase Inhibitor (Inh1) (ADM+Inh1); ADM plus 10 μM of MAPK Inhibitor (Inh2) (ADM+Inh2); and ADM plus 10 μM of Inh1 and Inh2 (ADM+Inh1, 2).
PPARγ expression was measured for 28 days in hADSCs treated with: control medium; adipogenic differentiation medium (ADM); and ADM plus 2 μM of Pyrintegrin (ADM+Pyrintegrin).

[3] = tested on: hADSCs; experiment: C/EBPα expression of hADSCs followed for 28 days; type: cell-based, human; conditions: ADM plus 2 μM Pyrintegrin, compared with ADM alone
Experimental: as §1, with “C/EBPα” for “PPARγ”
C/EBPα expression was measured for 28 days in hADSCs treated with: control medium; adipogenic differentiation medium (ADM); and ADM plus 2 μM of Pyrintegrin (ADM+Pyrintegrin).

[4] = tested on: hADSCs; experiment: Lipid staining / brightfield images of hADSCs four weeks post-treatment; type: cell-based, human; conditions: ADM plus Pyrintegrin, compared with ADM alone
Experimental: Brightfield images were produced four weeks post-treatment of hADSCs with: (A) ADM; (B) ADM+Inh1; (C) ADM+Inh2; and (D) ADM+Inh1, 2 (see e.g., FIG. 6 A-D).
Lipid staining was performed four weeks post-treatment of hADSCs with: (A) ADM; and (B) ADM plus Pyrintegrin (ADM+Pyrintegrin).

[5] = tested on: hADSCs; experiment: Adiponectin content of hADSCs at two and four weeks post-treatment; type: cell-based, human; conditions: ADM plus 2 μM Pyrintegrin
Experimental: (§2) At two and four weeks post-treatment, Adiponectin content was measure in hADSCs treated with: control medium; adipogenic differentiation medium (ADM); ADM plus 10 μM of Notch gamma Secretase Inhibitor (Inh1) (ADM+Inh1); ADM plus 10 μM of MAPK Inhibitor (Inh2) (ADM+Inh2), and ADM plus 10 μM of Inh1 and Inh2 (ADM+Inh1, 2).
At two and four weeks post-treatment, Adiponectin content was measured in hADSCs treated with: control medium; adipogenic differentiation medium (ADM); and ADM plus 2 μM of Pyrintegrin (ADM+Drug).

[6] = tested on: hADSCs; experiment: Leptin content of hADSCs at two and four weeks post-treatment; type: cell-based, human; conditions: ADM plus 2 μM Pyrintegrin
Experimental: as §2, with “Leptin” for “Adiponectin”, “measured” for “measure”, “(ADM+Inh2);” for “(ADM+Inh2),”
At two and four weeks post-treatment, Leptin content was measured in hADSCs treated with: control medium; adipogenic differentiation medium (ADM); and ADM plus 2 μM of Pyrintegrin (ADM+Drug).

[7] = tested on: hADSCs; experiment: Glycerol content of hADSCs at two and four weeks post-treatment; type: cell-based, human; conditions: ADM plus 2 μM Pyrintegrin
Experimental: At two and four weeks post-treatment, Glycerol content was measured in hADSCs treated with: control medium; adipogenic differentiation medium (ADM); and ADM plus 2 μM of Pyrintegrin (ADM+Drug).

[8] = tested on: BMP pathway; experiment: Western blot analysis of hADSCs 1-hour post-treatment, phosphorylation of Smad1/5/8; type: cell-based, human; conditions: 2 μM with ADM or alone
Experimental: (§3) Western blot analysis was performed 1-hour post-treatment in hADSCs treated with: control medium (Control); adipogenic differentiation medium (ADM); ADM plus 2 μM of Pyrintegrin (ADM+Drug); and Pyrintegrin alone (Drug).

[9] = tested on: TGFβ/Activin pathway; experiment: Western blot analysis of hADSCs 1-hour post-treatment, TGFβ/Activin pathway; type: cell-based, human; conditions: 2 μM with ADM or alone
Experimental: as §3

[10] = tested on: hADSCs; experiment: PPARγ and C/EBPα gene expression of hADSCs four days post-treatment with Pyrintegrin without ADM; type: cell-based, human; conditions: control medium plus 2 μM or 10 μM Pyrintegrin
Experimental: PPARγ and C/EBPα gene expression was measured at four days post-treatment in hADSCs treated with: control medium (Control); control medium plus 2 μM of Pyrintegrin (Control+Drug 2 μM); control medium plus 10 μM of Pyrintegrin (Control+Drug 10 μM) and adipogenic medium (ADM).

EGF: EGF added at 50 ng/mL to the adipogenic medium (NSDSECPLSHDGYCLHDGVCMYIEALDKYACNCVVGYIGERCQYRDLKWWELR; UniProt P01133 971-1023, looked up)
adipogenesis of ASCs on addition of EGF to the adipogenic medium [1]: further inhibited adipogenesis

O=S(=O)(NCC1CC1)c1ccc(Nc2nccc(N3CCCc4cc(O)ccc43)n2)cc1 [Pyrintegrin, N-(Cyclopropylmethyl)-4-(4-(6-hydroxy-3,4-dihydroquinolin-1-(2H)-yl)pyrimidin-2-ylamino)benzenesulfonamide]
PPARγ expression in hADSCs [2]: more potent in inducing PPARγ expression
C/EBPα expression in hADSCs [3]: more potent in inducing C/EBPα expression
lipid accumulation in hADSCs [4]: more potent in inducing lipid accumulation
secretion of Adiponectin cytokine by hADSCs [5]: enhanced the secretion of Adiponectin cytokine
secretion of Leptin cytokine by hADSCs [6]: enhanced the secretion of Leptin cytokine
secretion of Glycerol by hADSCs [7]: enhanced the secretion of Glycerol
phosphorylation of Smad1/5/8 (BMP pathway) [8]: prevents the phosphorylation of Smad1/5/8
TGFβ/Activin pathway inhibition [9]: does not target the TGFβ/Activin pathway
adipogenic differentiation of hADSCs (PPARγ and C/EBPα gene expression) [10]: can induce hADSCs towards an adipogenic differentiation pathway
